From patent US20260297118A1, “SUBSTITUTED PYRIMIDINONE AND AZAPYRIMIDINONE COMPOUNDS, COMPOSITIONS, AND USES THEREOF” (LAKEWOOD AMEDEX, INC., priority 2023, published 2026)

What was measured:
Format in all cases: cell-based
E. coli MMX-8870 = assay: MIC, broth microdilution, E. coli MMX-8870; conditions: E. coli MMX-8870, Gram −ve; pH 3; 18 to 24 hours
Procedure: (§1) MIC testing is conducted using the broth (Mueller Hinton Broth) microdilution procedures relevant to each organism group as established by the Clinical and Laboratory Standards Institute (CLSI; 3-7). MIC plates are prepared in accordance with CLSI (3-7). To prepare the test plates, automated liquid handlers are used to conduct serial dilutions and liquid transfers. Automated liquid handlers utilized in this study include the Multidrop 384 (Labsystems, Helsinki, Finland) and the Biomek 2000 (Beckman Coulter, Fullerton CA). The solution is diluted to desired pH using 1 M Citric Acid or 1 M NaOH buffer. A standardized inoculum of each test organism is prepared per CLSI methods (3, 5-7) to equal a 0.5 McFarland standard in the appropriate media followed by an additional 1:20 dilution (1:10 for anaerobes).
(§2) The plates are then inoculated with 10 μL of the diluted 0.5 McFarland suspension using the Biomek 2000 from low to high drug concentration, resulting in a final concentration of approximately 5×10^5 CFU/mL per well. An un-inoculated plate is incubated for the purpose of assessing solubility of the drug in the test media. The plates are stacked 3 to 4 high, covered with a sterile lid on the top plate, and incubated for 18 to 24 hours according to CLSI. The MIC is recorded as the lowest concentration of respective compound that inhibited visible growth of the organism.

Candida albicans (22972) = assay: MIC, broth microdilution, Candida albicans (22972); conditions: pH 3, Mueller Hinton Broth, 18 to 24 hours, read-out: MIC
Procedure: as §1, §2

[1] = system: Staphylococcus aureus (43330); assay: MIC, broth microdilution, Staphylococcus aureus (43330); conditions: pH 3, Mueller Hinton Broth, 18 to 24 hours, read-out: MIC
Procedure: as §1, §2

E. faecium MMX-3355 = assay: MIC, broth microdilution, E. faecium MMX-3355; parameters: unit not given beside the values; conditions: E. faecium MMX-3355, Gram +ve; pH 3; 18 to 24 hours
Procedure: as §1, §2

[2] = system: S. saprophyticus ATCC-49907; assay: MIC, broth microdilution, S. saprophyticus ATCC-49907; parameters: unit not given beside the values; conditions: S. saprophyticus ATCC-49907, Gram +ve; pH 3; 18 to 24 hours
Procedure: as §1, §2

[3] = system: S. haemolyticus ATCC-29970; assay: MIC, broth microdilution, S. haemolyticus ATCC-29970; conditions: S. haemolyticus ATCC-29970, Gram +ve; pH 3; 18 to 24 hours
Procedure: as §1, §2

S. aureus ATCC-29213 = assay: MIC, broth microdilution, S. aureus ATCC-29213; parameters: unit not given beside the values; conditions: S. aureus ATCC-29213, Gram +ve; pH 3; 18 to 24 hours
Procedure: as §1, §2

E. faecalis MMX-3353 = assay: MIC, broth microdilution, E. faecalis MMX-3353; conditions: E. faecalis MMX-3353, Gram +ve; pH 3; 18 to 24 hours
Procedure: as §1, §2

C. freundii CDC-0157 = assay: MIC, broth microdilution, C. freundii CDC-0157; parameters: unit not given beside the values; conditions: C. freundii CDC-0157, Gram −ve; pH 3; 18 to 24 hours
Procedure: as §1, §2

E. faecalis ATCC-29212 = assay: MIC, broth microdilution, E. faecalis ATCC-29212; parameters: unit not given beside the values; conditions: E. faecalis ATCC-29212, Gram +ve; pH 3; 18 to 24 hours
Procedure: as §1, §2

P. aeruginosa ATCC-27853 = assay: MIC, broth microdilution, P. aeruginosa ATCC-27853; parameters: unit not given beside the values; conditions: P. aeruginosa ATCC-27853, Gram −ve; pH 3; 18 to 24 hours
Procedure: as §1, §2

S. pyogenes ATCC-49399 = assay: MIC, broth microdilution, S. pyogenes ATCC-49399; parameters: unit not given beside the values; conditions: S. pyogenes ATCC-49399, Gram +ve; pH 3; 18 to 24 hours
Procedure: as §1, §2

[4] = system: K. pneumoniae ATCC BAA-2146; assay: MIC, broth microdilution, K. pneumoniae ATCC BAA-2146; parameters: unit not given beside the values; conditions: K. pneumoniae ATCC BAA-2146, Gram −ve; pH 3; 18 to 24 hours
Procedure: as §1, §2

S. aureus ATCC -3591 = assay: MIC, broth microdilution, S. aureus ATCC -3591; parameters: unit not given beside the values; conditions: S. aureus ATCC -3591, Gram +ve; pH 3; 18 to 24 hours
Procedure: as §1, §2

A. baumannii ATCC-19606 = assay: MIC, broth microdilution, A. baumannii ATCC-19606; parameters: unit not given beside the values; conditions: A. baumannii ATCC-19606, Gram −ve; pH 3; 18 to 24 hours
Procedure: as §1, §2

S. agalactiae ATCC-13813 = assay: MIC, broth microdilution, S. agalactiae ATCC-13813; parameters: unit not given beside the values; conditions: S. agalactiae ATCC-13813, Gram +ve; pH 3; 18 to 24 hours
Procedure: as §1, §2

[5] = system: S. dysgalactiae ATCC-6644; assay: MIC, broth microdilution, S. dysgalactiae ATCC-6644; parameters: unit not given beside the values; conditions: S. dysgalactiae ATCC-6644, Gram +ve; pH 3; 18 to 24 hours
Procedure: as §1, §2

E. coli ATCC-25922 = assay: MIC, broth microdilution, E. coli ATCC-25922; parameters: unit not given beside the values; conditions: E. coli ATCC-25922, Gram −ve; pH 3; 18 to 24 hours
Procedure: as §1, §2

C. striatum ATCC-6940 = assay: MIC, broth microdilution, C. striatum ATCC-6940; conditions: C. striatum ATCC-6940, Gram +ve; pH 3; 18 to 24 hours
Procedure: as §1, §2

H. influenzae ATCC-49247 = assay: MIC, broth microdilution, H. influenzae ATCC-49247; parameters: unit not given beside the values; conditions: H. influenzae ATCC-49247, Gram −ve; pH 3; 18 to 24 hours
Procedure: as §1, §2

K. pneumoniae ATCC-43816 = assay: MIC, broth microdilution, K. pneumoniae ATCC-43816; parameters: unit not given beside the values; conditions: K. pneumoniae ATCC-43816, Gram −ve; pH 3; 18 to 24 hours
Procedure: as §1, §2

Escherichia coli (25922) = assay: MIC, broth microdilution, Escherichia coli (25922); conditions: pH 3, Mueller Hinton Broth, 18 to 24 hours, read-out: MIC
Procedure: as §1, §2

E. cloacae ATCC BAA-2468 = assay: MIC, broth microdilution, E. cloacae ATCC BAA-2468; parameters: unit not given beside the values; conditions: E. cloacae ATCC BAA-2468, Gram −ve; pH 3; 18 to 24 hours
Procedure: as §1, §2

[6] = system: Pseudomonas aeruginosa (27853); assay: MIC, broth microdilution, Pseudomonas aeruginosa (27853); conditions: pH 3, Mueller Hinton Broth, 18 to 24 hours, read-out: MIC
Procedure: as §1, §2

[7] = system: A. radioresistens MMX-8551; assay: MIC, broth microdilution, A. radioresistens MMX-8551; parameters: unit not given beside the values; conditions: A. radioresistens MMX-8551, Gram −ve; pH 3; 18 to 24 hours
Procedure: as §1, §2

M. morganii CDC-0519 = assay: MIC, broth microdilution, M. morganii CDC-0519; parameters: unit not given beside the values; conditions: M. morganii CDC-0519, Gram −ve; pH 3; 18 to 24 hours
Procedure: as §1, §2

E. faecium ATCC-35667 = assay: MIC, broth microdilution, E. faecium ATCC-35667; conditions: E. faecium ATCC-35667, Gram +ve; pH 3; 18 to 24 hours
Procedure: as §1, §2

P. mirabilis CDC-0155 = assay: MIC, broth microdilution, P. mirabilis CDC-0155; parameters: unit not given beside the values; conditions: P. mirabilis CDC-0155, Gram −ve; pH 3; 18 to 24 hours
Procedure: as §1, §2

Escherichia coli (6259) = assay: MIC, broth microdilution, Escherichia coli (6259); conditions: pH 4-5, 18 to 24 hours
Procedure: as §1, §2

Escherichia coli (6260) = assay: MIC, broth microdilution, Escherichia coli (6260); conditions: pH 4-5, 18 to 24 hours
Procedure: as §1, §2

[8] = system: Pseudomonas aeruginosa (6328); assay: MIC, broth microdilution, Pseudomonas aeruginosa (6328); conditions: pH 4-5, 18 to 24 hours
Procedure: as §1, §2

[9] = system: Pseudomonas aeruginosa (6234); assay: MIC, broth microdilution, Pseudomonas aeruginosa (6234); conditions: pH 4-5, 18 to 24 hours
Procedure: as §1, §2

[10] = system: Pseudomonas aeruginosa (6160); assay: MIC, broth microdilution, Pseudomonas aeruginosa (6160); conditions: pH 4-5, 18 to 24 hours
Procedure: as §1, §2

Escherichia coli (6258) = assay: MIC, broth microdilution, Escherichia coli (6258); conditions: pH 4-5, 18 to 24 hours
Procedure: as §1, §2

Escherichia coli (6098) = assay: MIC, broth microdilution, Escherichia coli (6098); conditions: pH 4-5, 18 to 24 hours
Procedure: as §1, §2

[11] = system: Pseudomonas aeruginosa (0103); assay: MIC, broth microdilution, Pseudomonas aeruginosa (0103); conditions: pH 4-5, 18 to 24 hours
Procedure: as §1, §2

[12] = system: Pseudomonas aeruginosa (6326); assay: MIC, broth microdilution, Pseudomonas aeruginosa (6326); conditions: pH 4-5, 18 to 24 hours
Procedure: as §1, §2

Escherichia coli (0102) = assay: MIC, broth microdilution, Escherichia coli (0102); conditions: pH 4-5, 18 to 24 hours
Procedure: as §1, §2

## CCCCOP(=O)(O)OC[C@H]1O[C@@H](n2ccc(N(C)C)nc2=O)C(F)(F)[C@@H]1O [LAK-023, (2R,3S,5R)-5-(4-N,N-dimethylamino-2-oxopyrimidin-1(2H)-yl)-2,2-difluoro-3-hydroxytetrahydrofuranyl-2-methyl butyl phosphate]
E. coli MMX-8870
  MIC: 0.78
Candida albicans (22972)
  MIC: > 12.5 mg/mL
[1]
  MIC: 3.8 mg/mL
E. faecium MMX-3355
  MIC: 1.56
[2]
  MIC: 1.56
[3]
  MIC: 0.78
S. aureus ATCC-29213
  MIC: 1.56
E. faecalis MMX-3353
  MIC: 6.25
C. freundii CDC-0157
  MIC: 1.56
E. faecalis ATCC-29212
  MIC: 3.13
P. aeruginosa ATCC-27853
  MIC: 0.39
S. pyogenes ATCC-49399
  MIC: 1.56
[4]
  MIC: 0.78
S. aureus ATCC -3591
  MIC: 6.25
A. baumannii ATCC-19606
  MIC: 0.78
S. agalactiae ATCC-13813
  MIC: 0.39
[5]
  MIC: 0.78
E. coli ATCC-25922
  MIC: 0.78
C. striatum ATCC-6940
  MIC: 1.56
H. influenzae ATCC-49247
  MIC: 0.39
K. pneumoniae ATCC-43816
  MIC: 1.56
Escherichia coli (25922)
  MIC: 0.8 mg/mL
E. cloacae ATCC BAA-2468
  MIC: 0.78
[6]
  MIC: 0.4 mg/mL
[7]
  MIC: 0.78
M. morganii CDC-0519
  MIC: 3.13
E. faecium ATCC-35667
  MIC: 3.13
P. mirabilis CDC-0155
  MIC: 1.56

## CCCCOP(=O)(O)OC[C@H]1O[C@@H](n2ccc(N)nc2=O)C[C@@H]1O [R-1, (2R,3S,5R)-5-(4-amino-2-oxopyrimidin-1(2H)-yl)-3-hydroxytetrahydrofuran-2-methyl butyl phosphate]
Escherichia coli (6259)
  MIC: 50 mg/mL
Escherichia coli (6260)
  MIC: 50 mg/mL
[8]
  MIC: 25 mg/mL
[9]
  MIC: 25 mg/mL
[10]
  MIC: 25 mg/mL
Escherichia coli (6258)
  MIC: 50 mg/mL
Escherichia coli (6098)
  MIC: 50 mg/mL
[11]
  MIC: 25 mg/mL
[12]
  MIC: 25 mg/mL
Escherichia coli (0102)
  MIC: 50 mg/mL

## CCCCOP(=O)(O)OC[C@H]1O[C@@H](n2ccc(N)nc2=O)[C@H](OC)[C@@H]1O [R-5, (2R,3S,4R,5R)-5-(4-amino-2-oxopyrimidin-1(2H)-yl)-3-hydroxy-4-methoxy-tetrahydrofuran-2-methyl butyl phosphate]
Escherichia coli (6259)
  MIC: 50 mg/mL
Escherichia coli (6260)
  MIC: 100 mg/mL
[8]
  MIC: 25 mg/mL
[9]
  MIC: 25 mg/mL
[10]
  MIC: 25 mg/mL
Escherichia coli (6258)
  MIC: 100 mg/mL
Escherichia coli (6098)
  MIC: 100 mg/mL
[11]
  MIC: 25 mg/mL
[12]
  MIC: 25 mg/mL
Escherichia coli (0102)
  MIC: 50 mg/mL
